Source: US6444617B1, “Fused-heterocycle dicarboxylic acid diamide derivatives or salts thereof, herbicide and usage thereof” (Nihon Nohyaku Co., Ltd., priority 1998, dated 2002)

Tests used:
Type in all cases: in vivo
[1] = tested on: barnyard grass (Echinochloa crus-galli Beauv.); assay: Test Example 1: herbicidal effect on paddy field weeds before emergence; settings: Dosage 5 kg/ha
Outline: (§1)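 Grading reflects percent control relative to untreated plots, evaluated three weeks post-application. Treatment was a soil application of compound solution, predetermined dose, made to paddy-state pots before weed seeds germinated.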

[2] = tested on: bulrush (Scirpus juncoides Roxb.); assay: as above; settings: Dosage 5 kg/ha
Outline: as §1

[3] = tested on: barnyard grass (Echinochloa crus-galli Beauv.); assay: Test Example 2: herbicidal effect on paddy field weeds after emergence; settings: Dosage 5 kg/ha; one-leaved stage; 21 days after treatment
Outline: (§2)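 Weeds in flooded paddy-soil pots were grown to the one-leaved stage, then the soil was treated with the compound solution at a set dosage.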

[4] = tested on: bulrush (Scirpus juncoides Roxb.); assay: as above; settings: Dosage 5 kg/ha; one-leaved stage; 21 days after treatment
Outline: as §2

[5] = tested on: monochoria (Monochoria vaginalis Presl); assay: as above; settings: Dosage 5 kg/ha; one-leaved stage; 21 days after treatment
Outline: as §2

[6] = tested on: barnyard grass (Echinochloa crus-galli Beauv.), Ec; assay: Test Example 3: herbicidal effect on upland weeds before emergence; settings: dosage 5 kg/ha
Outline: (§3)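 Steps: sow upland weed seeds; spray liquid formulation of active ingredient at prescribed concentration prior to emergence; after 14 days, calculate weed-killing rate; judge herbicidal effect.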

[7] = tested on: bird's eye speedwell (Veronica persica Poir.), Vp; assay: as above; settings: dosage 5 kg/ha
Outline: as §3

[8] = tested on: cleavers (Galium aparine L.), Ga; assay: as above; settings: dosage 5 kg/ha
Outline: as §3

[9] = tested on: cocklebur (Xanthium strumarium L.), Xs; assay: as above; settings: dosage 5 kg/ha
Outline: as §3

[10] = tested on: forxtail grass (Alopecurus aequalis var. amurensis Ohwi), Am; assay: as above; settings: foxtail grass, dosage 5 kg/ha
Outline: as §3

[11] = tested on: velvetleaf (Abutilon theophtasti L.), At; assay: as above; settings: dosage 5 kg/ha
Outline: as §3

soybean plant (So) = assay: Test Example 3: phytotoxicity to upland crop plants, treatment before emergence; settings: dosage 5 kg/ha
Outline: (§4)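 Phytotoxicity scores for soybean and wheat were assigned by a set criterion 14 days after a pre-emergence spray of a liquid preparation containing the test compound at a prescribed concentration.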

wheat (Wh) = assay: as above; settings: dosage 5 kg/ha
Outline: as §4

[12] = tested on: barnyard grass (Echinochloa crus-galli Beauv.), Ec; assay: Test Example 4: herbicidal effect on upland weeds after emergence; settings: dosage 5 kg/ha; sprayed after emergence; judged 14 days after treatment
Outline: (§5)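 Seeds sown in soil and covered. Plants raised to specified leaf stages. Agent with test compound at a prescribed concentration sprayed. Herbicidal effect and crop damage scored after 14 days as weed-killing rate.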

[13] = tested on: bird's eye speedwell (Veronica persica Poir.), Vp; assay: as above; settings: dosage 5 kg/ha; sprayed after emergence; judged 14 days after treatment
Outline: as §5

[14] = tested on: cleavers (Galium aparine L.), Ga; assay: as above; settings: dosage 5 kg/ha; sprayed after emergence; judged 14 days after treatment
Outline: as §5

[15] = tested on: cocklebur (Xanthium strumarium L.), Xs; assay: as above; settings: dosage 5 kg/ha; sprayed after emergence; judged 14 days after treatment
Outline: as §5

[16] = tested on: forxtail grass (Alopecurus aequalis var. amurensis Ohwi), Am; assay: as above; settings: dosage 5 kg/ha; sprayed after emergence; judged 14 days after treatment
Outline: as §5

[17] = tested on: velvetleaf (Abutilon theophtasti L.), At; assay: as above; settings: dosage 5 kg/ha; sprayed after emergence; judged 14 days after treatment
Outline: as §5

soybean plant = assay: Test Example 4: phytotoxicity to upland crop plants, treatment after emergence; settings: dosage 5 kg/ha, sprayed after emergence, judged 14 days after treatment
Outline: (§6)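 Scores of weed-killing rate, with crop phytotoxicity, come from inspection 14 days after plants in soil vats, grown to specified leaf stages, are sprayed with a formulation holding the compound at a prescribed concentration.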

wheat = assay: as above; settings: dosage 5 kg/ha, sprayed after emergence, judged 14 days after treatment
Outline: as §6

Row | Structure (SMILES) | Pre-emergence treatment Barnyard grass (herbicidal effect) [1] | Pre-emergence treatment Bulrush (herbicidal effect) [2] | Post-emergence treatment Barnyard grass (herbicidal effect) [3] | Post-emergence treatment Bulrush (herbicidal effect) [4] | Post-emergence treatment Monochoria (herbicidal effect) [5] | Herbicidal effect Ec [6] | Herbicidal effect Vp [7] | Herbicidal effect Ga [8] | Herbicidal effect Xs [9] | Herbicidal effect Am [10] | Herbicidal effect At [11] | Phytotoxicity So (soybean plant (So)) | Phytotoxicity Wh (wheat (Wh)) | Herbicidal effect Ec [12] | Herbicidal effect Vp [13] | Herbicidal effect Ga [14] | Herbicidal effect Xs [15] | Herbicidal effect Am [16] | Herbicidal effect At [17] | Phytotoxicity So (soybean plant) | also measured
1 | CCCNC(=O)c1nc2c(cc1C(=O)Nc1cccc(Cl)c1C)CCOC2 [compound 450] | 5 (Weed-killing rate is 100%.) | 5 (Weed-killing rate is 100%.) | 5 (Weed-killing rate is 100%.) | 5 (Weed-killing rate is 100%.) | 5 (Weed-killing rate is 100%.) | 5 (Weed-killing rate is 100%.) | 5 (Weed-killing rate is 100%.) | 4 (Weed-killing rate is 90-99%.) | 4 (Weed-killing rate is 90-99%.) | 5 (Weed-killing rate is 100%.) | 5 (Weed-killing rate is 100%.) | 4 (Crop-killing rate is 90-99%.) | 4 (Crop-killing rate is 90-99%.) | 5 (Weed-killing rate is 100%.) | 5 (Weed-killing rate is 100%.) | 4 (Weed-killing rate is 90-99%.) | 4 (Weed-killing rate is 90-99%.) | 5 (Weed-killing rate is 100%.) | 5 (Weed-killing rate is 100%.) | 4 (Crop-killing rate is 90-99%.) | Phytotoxicity Wh (wheat): 4 (Crop-killing rate is 90-99%.)
2 | CCCNC(=O)c1nc2c(cc1C(=O)Nc1cccc(Cl)c1C)COCC2 [compound 474] | 5 (Weed-killing rate is 100%.) | 5 (Weed-killing rate is 100%.) | 5 (Weed-killing rate is 100%.) | 5 (Weed-killing rate is 100%.) | 5 (Weed-killing rate is 100%.) | 5 (Weed-killing rate is 100%.) | 5 (Weed-killing rate is 100%.) | 4 (Weed-killing rate is 90-99%.) | 4 (Weed-killing rate is 90-99%.) | 5 (Weed-killing rate is 100%.) | 5 (Weed-killing rate is 100%.) | 3 (Crop-killing rate is 70-89%.) | 4 (Crop-killing rate is 90-99%.) | 5 (Weed-killing rate is 100%.) | 5 (Weed-killing rate is 100%.) | 4 (Weed-killing rate is 90-99%.) | 4 (Weed-killing rate is 90-99%.) | 5 (Weed-killing rate is 100%.) | 5 (Weed-killing rate is 100%.) | 3 (Crop-killing rate is 70-89%.) | Phytotoxicity Wh (wheat): 3 (Crop-killing rate is 70-89%.)
3 | CCCNC(=O)c1nc2c(cc1C(=O)Nc1c(CC)ccc(Cl)c1CC)OCCC2 [compound 486] | 5 (Weed-killing rate is 100%.) | 5 (Weed-killing rate is 100%.) | 5 (Weed-killing rate is 100%.) | 5 (Weed-killing rate is 100%.) | 5 (Weed-killing rate is 100%.) | 5 (Weed-killing rate is 100%.) | 5 (Weed-killing rate is 100%.) | 5 (Weed-killing rate is 100%.) | 5 (Weed-killing rate is 100%.) | 5 (Weed-killing rate is 100%.) | 5 (Weed-killing rate is 100%.) | 4 (Crop-killing rate is 90-99%.) | 4 (Crop-killing rate is 90-99%.) | 5 (Weed-killing rate is 100%.) | 5 (Weed-killing rate is 100%.) | 5 (Weed-killing rate is 100%.) | 5 (Weed-killing rate is 100%.) | 5 (Weed-killing rate is 100%.) | 5 (Weed-killing rate is 100%.) | 4 (Crop-killing rate is 90-99%.) | Phytotoxicity Wh (wheat): 4 (Crop-killing rate is 90-99%.)
